# Laboratory results as given in patent US8017635B2, “Phenylalkyl substituted heteroaryl derivatives” (FMC Corporation, priority 2005, dated 2011).
# System: tobacco budworm (Heliothis virescens [Fabricius])
# Test: surface-treated diet test against tobacco budworm
# Type: in vivo
# Settings: 0.25 millimolar candidate insecticide on the surface of the diet, second instar larvae, five-day exposure; for Percent Growth Inhibition: inhibition of insect weight relative to untreated controls; for Percent Mortality: mortality compared to the total number of insects infested
# Procedure: Candidate insecticides were evaluated for activity against the tobacco budworm (Heliothis virescens [Fabricius]) in a surface-treated diet test.
# In this test one mL of molten (65-70° C.) wheat germ-based artificial diet was pipetted into each well of a four by six (24 well) multi-well plate (ID# 430345-15.5 mm diameter×17.6 mm deep; Corning Costar Corp., One Alewife Center, Cambridge, Mass. 02140). The diet was allowed to cool to ambient temperature before treatment with the candidate insecticide.
# For a determination of insecticidal activity, solutions of the candidate insecticides were prepared for testing using a Packard 204DT Multiprobe® Robotic System (Packard Instrument Company, 800 Research Parkway, Meriden, Conn. 06450), in which the robot first diluted a standard 50 millimolar DMSO solution of the candidate insecticide with a 1:1 water/acetone solution (V/V) in a ratio of 1:7 stock solution to water/acetone. The robot subsequently pipetted 40 microliters of the so-prepared solution onto the surface of the diet in each of three wells in the 24 multi-well plate. The process was repeated with solutions of seven other candidate insecticides. Once treated, the contents of the multi-well plate were allowed to dry, leaving […] of candidate insecticide on the surface of the diet, or a concentration of 0.25 millimolar. Appropriate untreated controls containing only DMSO on the diet surface were also included in this test. […]
# In each well of the test plate was placed a second instar tobacco budworm larvae, weighing approximately five milligrams. After the larvae were placed in each well, the plate was sealed with clear polyfilm adhesive tape. The tape over each well was perforated to ensure an adequate air supply. The plates were then held in a growth chamber at 25° C. and 60% relative humidity for five days (light 14 hours/day).
# After the five-day exposure period insecticidal activity for each rate of application of candidate insecticide was assessed as percent inhibition of insect weight relative to the weight of insects from untreated controls, and percent mortality when compared to the total number of insects infested.
# The test compounds of formula I are identified by numbers that correspond to those in Table 1.
Compound,Percent Growth Inhibition,Percent Mortality
"5-(3,3-dichloroprop-2-enyloxy)-1,3-dichloro-2-(2-(4-(4-chlorophenyl)-1,2,3-triazolyl)ethoxy)benzene [Compound 1-2]",100%,100%
FC(F)(F)c1ccc(-c2cn(CCOc3c(Cl)cc(OCC=C(Cl)Cl)cc3Cl)nn2)cc1 [Compound 1-1],100%,100%
ClC(Cl)=CCOc1cc(Cl)c(OCCn2cc(-c3ccc(Cl)c(Cl)c3)nn2)c(Cl)c1 [Compound 1-3],100%,100%
ClC(Cl)=CCOc1cc(Cl)c(OCCn2cc(Cc3ccccc3)nn2)c(Cl)c1 [Compound 1-4],100%,100%
ClC(Cl)=CCOc1cc(Cl)c(OCCn2cc(CC3CCCC3)nn2)c(Cl)c1 [Compound 1-5],100%,100%
CC(C)Cc1cn(CCOc2c(Cl)cc(OCC=C(Cl)Cl)cc2Cl)nn1 [Compound 1-6],49%,0%
CC(C)(C)c1cn(CCOc2c(Cl)cc(OCC=C(Cl)Cl)cc2Cl)nn1 [Compound 1-7],100%,100%
ClC(Cl)=CCOc1cc(Cl)c(OCCn2cc(-c3ccc(Cl)cc3Cl)nn2)c(Cl)c1 [Compound 1-8],33%,0%
FC(F)(F)c1ccc(-c2cn(CCCOc3c(Cl)cc(OCC=C(Cl)Cl)cc3Cl)nn2)cc1 [Compound 1-9],100%,100%
ClC(Cl)=CCOc1cc(Cl)c(OCCn2cc(-c3ccccc3Cl)nn2)c(Cl)c1 [Compound 1-11],100%,100%
ClC(Cl)=CCOc1cc(Cl)c(OCCn2cc(-c3cccc(Cl)c3)nn2)c(Cl)c1 [Compound 1-12],100%,100%
FC(F)(F)c1cccc(-c2cn(CCOc3c(Cl)cc(OCC=C(Cl)Cl)cc3Cl)nn2)c1 [Compound 1-14],100%,100%
Fc1ccc(-c2cn(CCOc3c(Cl)cc(OCC=C(Cl)Cl)cc3Cl)nn2)c(F)c1 [Compound 1-15],100%,100%
CN(C)c1ccc(-c2cn(CCOc3c(Cl)cc(OCC=C(Cl)Cl)cc3Cl)nn2)cc1 [Compound 1-16],91%,67%
ClC(Cl)=CCOc1cc(Cl)c(OCCn2cc(-c3ccc(Oc4ccccc4)cc3)nn2)c(Cl)c1 [Compound 1-17],100%,67%
FC(F)(F)c1ccc(-c2cn(CCOc3c(Cl)cc(OCC=C(Cl)Cl)cc3Cl)nn2)nc1 [Compound 1-18],100%,100%
C[Si](C)(C)c1cn(CCCOc2c(Cl)cc(OCC=C(Cl)Cl)cc2Cl)nn1 [Compound 1-19],100%,100%
FC(F)(F)c1ccc(OCc2cn(CCOc3c(Cl)cc(OCC=C(Cl)Cl)cc3Cl)nn2)cc1 [Compound 1-69],71%,17%
ClC(Cl)=CCOc1cc(Cl)c(OCCn2cnc(-c3ccccc3)c2)c(Cl)c1 [Compound 2-1],100%,100%
ClC(Cl)=CCOc1cc(Cl)c(OCCn2nnc(-c3ccccc3)n2)c(Cl)c1 [Compound 7-1],100%,100%
FC(F)(F)c1ccc(-c2nnn(CCOc3c(Cl)cc(OCC=C(Cl)Cl)cc3Cl)n2)cc1 [Compound 7-2],100%,100%
"FC(F)(F)c1cccc(-c2nnn(CCOc3c(Cl)cc(OCC=C(Cl)Cl)cc3Cl)n2)c1 [Compound 7-54, 5-(3,3-dichloroprop-2-enyloxy)-1,3-dichloro-2(-2-(5-(3-trifluoromethylphenyl)(1,2,3,4-tetraazol-2-yl))ethoxy)benzene]",100%,100%
ClC(Cl)=CCOc1cc(Cl)c(OCCn2nnc(-c3ccccc3Cl)n2)c(Cl)c1 [Compound 7-55],100%,100%
ClC(Cl)=CCOc1cc(Cl)c(OCCn2nnc(-c3cccc(Cl)c3)n2)c(Cl)c1 [Compound 7-56],100%,100%
"FC(F)(F)c1ccc(-c2n[nH]c(CCOc3c(Cl)cc(OCC=C(Cl)Cl)cc3Cl)n2)cc1 [Compound 8-2, 5-(3,3-dichloroprop-2-enyloxy)-1,3-dichloro-2-(2-(3-(4-trifluoromethylphenyl)(1,2,4-triazolyl))ethoxy)benzene]",100%,100%
"FC(F)(F)c1cccc(-c2noc(COc3c(Cl)cc(OCC=C(Cl)Cl)cc3Cl)n2)c1 [Compound 14-54, 5-(3,3-dichloroprop-2-enyloxy)-1,3-dichloro-2((3-(3-trifluoromethylphenyl)(1,2,4-oxadiazol-5-yl))methoxy)benzene]",100%,100%
